Measurements from ChEMBL document CHEMBL1146560, “The isolation and structure elucidation of Tasiamide B, a 4-amino-3-hydroxy-5-phenylpentanoic acid containing peptide from the marine Cyanobacterium Symploca sp” (J Nat Prod, 2003).
*1 amine or outer side, *2 acyl side, *3 side chain or, on linkers, in order; H or OH if unused. Where a SMILES comes first, the peptide text is derived from it. [ ]: non-standard residue; d: D form. Ahppa(3S,4S) = O=C(C[C@H](O)[C@H](Cc1ccccc1)N[*:1])[*:2]; dNMeF = CN[C@H](Cc1ccccc1)C(=O)O; NMeQ = CN[C@@H](CCC(N)=O)C(=O)O; Lac = C[C@H](O)C(=O)O

System: KB
Assay: Cytotoxicity against human KB cells
Type: functional, cell-based

Q: For COC(=O)[C@@H]1CCCN1C(=O)[C@@H](Cc1ccccc1)N(C)C(=O)[C@H](C)NC(=O)[C@H](CC(C)C)NC(=O)C[C@H](O)[C@H](Cc1ccccc1)NC(=O)[C@H](CCC(N)=O)N(C)C(=O)[C@@H](NC(=O)[C@H](C)O)C(C)C [TASIAMIDE B] (H-[Lac]V[NMeQ][Ahppa(3S,4S)]LA[dNMeF]P-OMe), which IC50 is on record?
A: 800 nM
